Experimental data from patent US20090068290A1, “BIFEPRUNOX DOSES FOR TREATING SCHIZOPHRENIA” (priority 2006, published 2009).
Like-named read-outs stand apart in the source and are kept apart here.

Legend:
[1] = tested on: patients with chronic schizophrenia; experiment: Time to deterioration, Clinical Study Four (6-month, placebo-controlled); format: in vivo, human; settings: for proportion of patients who deteriorated / time to deterioration of schizophrenia versus PBO (in words): 6 months; for proportion of patients who deteriorated / estimated hazard ratio relative to PBO, time to deterioration (Cox proportional hazards model) / Hazard Ratio (Cox), time to deterioration / % Deteriorated / No. of Pts Deteriorated: FAS; for time to deterioration of schizophrenia versus PBO (in words): BX 20 and 30 mg/day
Protocol: (§1) METHODOLOGY: This study was a multinational, multicenter, randomized, double-blind, parallel-group, placebo-controlled, fixed-dose study. The study consisted of a 3- to 6-day antipsychotic-free run-in period, after which patients were randomised to 6 months of double-blind treatment with fixed doses of bifeprunox (20 mg/day (BX20) or 30 mg/day (BX30)) or placebo (PBO). Patients allocated to the BX groups were up-titrated from 0.25 mg/day over 7 days (BX20) or 8 days (BX30), and then continued on these doses for the remainder of the study. […] At predetermined time points, blood samples were obtained for drug concentration analysis of BX and its major metabolites (3′- and 4′-sulfate conjugates of BX), and pharmaco-economic assessments were performed.
Investigational Product, Dose and Mode of Administration, Batch Number: Bifeprunox—up-titration over 7 (20 mg) or 8 days (30 mg) to 20 or 30 mg once daily; encapsulated tablets, orally.
Reference Thera Dose and Mode of Administration: Placebo—encapsulated tablets, orally.

[2] = tested on: patients with chronic schizophrenia; experiment: PANSS negative subscale score, Clinical Study Four; format: in vivo, human; settings: FAS, ANCOVA; for PANSS negative subscale, Adjusted Mean Change from Baseline (LS mean): LOCF; for mean PANSS negative subscale scores versus PBO, per-visit LOCF analysis: both BX doses
Protocol: as §1

[3] = Metabolic syndrome status, Clinical Study Four; format: in vivo, human; settings: 6 months
Protocol: as §1

[4] = Pharmacokinetics of bifeprunox, pooled analysis and population PK; format: in vivo, human; settings: for half-life: read-out: mean plasma steady-state (elimination) half-life (converted)
Description: The objective of this study is to assess the pharmacokinetics (PK) of bifeprunox. The PK of bifeprunox in healthy subjects were investigated based on a pooled analysis of PK parameters from 21 clinical pharmacology studies. The pooled analysis included PK profiles after single and multiple doses to 132 and 399 subjects, respectively, and explored the potential effects of age, gender, body weight, and race. In addition, PK in patients with schizophrenia were investigated using a population PK approach based on samples from 376 patients in phase II studies and 434 patients in phase III studies.

[5] = Pharmacokinetic interaction of lithium and bifeprunox in healthy male subjects; format: in vivo, human; settings: bifeprunox up to 40 mg per day and lithium 450 mg twice daily
Protocol: Because bifeprunox may be used in combination with the mood-stabilizing drug lithium for the treatment of patients with psychoses and mood disorders, the effect of multiple doses of bifeprunox on the pharmacokinetic (PK) profile of lithium was evaluated. Lithium has a narrow therapeutic index that can complicate therapy, and serum levels greater than 1.5 mmol/L carry a greater risk of lithium toxicity than do lower levels.
METHODS: This was a single center, double-blind, randomized, placebo-controlled, parallel-design study in 48 healthy male subjects. All subjects were to receive open-label lithium (450 mg) twice daily on days 1 through 8 and, provided serum levels were stable on days 5 through 7, again on days 9 through 20. Subjects whose serum levels were stable on days 5 through 7 were included in those randomized to receive, in addition to lithium 450 mg twice daily, either placebo or a rising dose of bifeprunox (0.025-40 mg) once daily on days 9 through 17, and placebo or bifeprunox 40 mg on days 18 through 21. Only a single morning dose of lithium 450 mg was administered on day 21. Lithium, steady-state Cmax, AUC over the dosing interval (0-t), and renal clearance (CL-R) values were compared between the bifeprunox and placebo groups using ANCOVA with baseline values of lithium measured on day 8 as covariate.

[6] = Pooled metabolic analysis, 6-week studies: lipid profile
Description: (§2) OBJECTIVE: To examine the metabolic effects of bifeprunox in patients with acute and stable schizophrenia.
(§3) METHODS: Metabolic data was compiled from one 6-month and four 6-week studies (i.e., a treatment period) of bifeprunox in patients with stable and acute schizophrenia, respectively. In the 6-month study, patients received bifeprunox (n=331) or placebo (PBO) (n=166). […] Metabolic evaluations included body weight, body mass index (BMI), plasma glucose and lipid profiles. Fasting glucose and lipid values were assessed in one 6-week study and in the 6-month study. Triglyceride:HDL ratio (TG:HDL) was calculated as a marker of insulin resistance. No statistical analyses were performed; only descriptive statistics are presented.

[7] = Pooled metabolic analysis, 6-month study: lipid profile
Description: as §2, §3

[8] = Pooled metabolic analysis, 6-month study: glucose
Description: as §2, §3

[9] = Excretion of radioactivity after [14C]-labeled bifeprunox; settings: single oral dose of [14C]-labeled bifeprunox
[10] = fasting, endpoint, 6-week studies, BX total, OLZ 15 mg
[11] = non-fasting, endpoint, 6-week studies, BX total, RISP 6 mg, OLZ 15 mg, HAL 10 mg
[12] = fasting, endpoint, 6-month study, BX total

O=c1[nH]c2cccc(N3CCN(Cc4cccc(-c5ccccc5)c4)CC3)c2o1 [Bifeprunox, 7-[4-([1,1′-biphenyl]-3-ylmethyl)-1-piperazinyl]-2(3H)-benzoxazolone]
proportion of patients who deteriorated ([1]; BX20 (20 mg/day)): 41% | estimated hazard ratio relative to PBO, time to deterioration (Cox proportional hazards model) ([1]; BX20 (20 mg/day)): 0.66 | Hazard Ratio (Cox), time to deterioration ([1]; BX20 (bifeprunox 20 mg) relative to PBO): 0.656 | % Deteriorated ([1]; BX20 (bifeprunox 20 mg)): 40.5% | No. of Pts Deteriorated ([1]; BX20 (bifeprunox 20 mg), N 158): 64 | time to deterioration of schizophrenia versus PBO (in words) [1]: prevented deterioration of schizophrenia statistically significantly better than placebo | time to deterioration of schizophrenia versus PBO (in words) ([1]; listed as BX): statistically significantly longer time to deterioration | proportion of patients who deteriorated ([1]; BX30 (30 mg/day)): 38% | estimated hazard ratio relative to PBO, time to deterioration (Cox proportional hazards model) ([1]; BX30 (30 mg/day)): 0.65 | Hazard Ratio (Cox), time to deterioration ([1]; BX30 (bifeprunox 30 mg) relative to PBO): 0.653 | % Deteriorated ([1]; BX30 (bifeprunox 30 mg)): 38.4% | No. of Pts Deteriorated ([1]; BX30 (bifeprunox 30 mg), N 172): 66 | PANSS negative subscale, Adjusted Mean Change from Baseline (LS mean) ([2]; Month 6, listed as BX20): −1.6 | PANSS negative subscale, Adjusted Mean Change from Baseline (LS mean) ([2]; Month 6, listed as BX30): −1.7 | PANSS negative subscale, Adjusted Mean Change from Baseline (LS mean) ([2]; Week 6, listed as BX20): −2.0 | PANSS negative subscale, Adjusted Mean Change from Baseline (LS mean) ([2]; Week 6, listed as BX30): −1.6 | mean PANSS negative subscale scores versus PBO, per-visit LOCF analysis ([2]; listed as BX): statistically significantly superior to that with PBO at all time points, except at Weeks 2 and 4 for the BX30 group | mean PANSS negative subscale scores versus PBO, per-visit LOCF analysis ([2]; listed as BX20): statistically significantly superior to that with PBO at all time points, except at Weeks 2 and 4 for BX30 | effect on patients' status of metabolic syndrome ([3]; BX either dose (20 or 30 mg/day)): no treatment effect | metabolic profile (weight changes, blood lipids, metabolic syndrome) ([3]; bifeprunox 20 or 30 mg/day): A favorable metabolic profile | half-life ([4]; human, in vivo, po): 14.4 h | Tmax ([4]; human, in vivo, oral administration, all dose levels): 1.5 to 2 h | half-life ([4]; human, in vivo, oral): ~14 h | dose proportionality of multiple-dose PK [4]: dose-proportional in the 20-40 mg/day range | dose proportionality of multiple-dose PK ([4]; listed as bifeprunox): dose-proportional in the 2040 mg range | age-, gender-, body weight- or race-related effects on PK ([4]; pooled analysis): No clinically significant age-, gender-, body weight- or race-related effects | mean apparent clearance ([4]; steady-state, oral): 62.2 L/h | mean apparent volume of distribution ([4]; steady-state, oral): 1300 L | tolerability of combined administration [5]: well tolerated | change in total cholesterol (TC) ([6]; 6-week studies): -0.40 mmol/L | decrease in total cholesterol (TC) ([6]; 6-week studies): 8% | non-fasting total cholesterol and triglyceride at endpoint (in words) ([6]; 6-week studies): greatest decreases | change in TG ([6]; 6 week studies): -0.44 mmol/L | decrease in TG ([6]; 6 week studies): 24% | Fasting HDL, Mean change (SD) [6, 10]: −0.5 (10.7) mg/dL | Fasting HDL, Percentage mean change [6, 10]: −1.0% | Total cholesterol, Mean change (SD) [6, 10]: −15.5 (32.9) mg/dL | Total cholesterol, Percentage mean change [6, 10]: −7.9% | Triglyceride:HDL ratio, Mean change (SD) [6, 10]: −0.4 (0.9) | Triglyceride:HDL ratio, Percentage mean change [6, 10]: −23.8% | Triglycerides, Mean change (SD) [6, 10]: −38.9 (73.5) mg/dL | Triglycerides, Percentage mean change [6, 10]: −24.2% | Total cholesterol, Mean change (SD) [6, 11]: −12.9 (0.8) mg/dL | Triglycerides, Mean change (SD) [6, 11]: −38.7 (1.3) mg/dL | change in total cholesterol (TC) ([7]; 6-month study): -0.31 mmol/L | decrease in TG:HDL ([7]; 6-month study): 23% | decrease in total cholesterol (TC) ([7]; 6-month study): 6% | total cholesterol and triglycerides (in words) ([7]; 6-month study): reduced to a greater extent with bifeprunox than with placebo | Fasting HDL, Mean change (SD) [7, 12]: 2.9 (9.3) mg/dL | Fasting HDL, Percentage mean change [7, 12]: 6.2% | Total cholesterol, Mean change (SD) [7, 12]: −11.6 (29.7) mg/dL | Total cholesterol, Percentage mean change [7, 12]: −6.4% | Triglyceride:HDL ratio, Mean change (SD) [7, 12]: −0.4 (1.0) | Triglyceride:HDL ratio, Percentage mean change [7, 12]: −23.0% | Triglycerides, Mean change (SD) [7, 12]: −28.0 (76.0) mg/dL | Triglycerides, Percentage mean change [7, 12]: −19.4% | Fasting LDL, Mean change (SD) ([7]; in vivo): −9.7 (27.6) mg/dL | Fasting LDL, Percentage mean change ([7]; in vivo): −8.6% | change in TG values ([7]; over 6-months): -0.32 mmol/L | decrease in TG values ([7]; over 6-months): 19% | change in mean fasting glucose at endpoint ([8]; 6-month study): +4.32 mg/dL | change in non-fasting glucose at endpoint ([8]; bifeprunox total group): +1.16 mg/dL | radioactivity excreted in the feces [9]: 74% | radioactivity excreted in the urine [9]: 13%
